According to US20110184188A1, “Insecticidal Benzenedicarboxamide Derivative” (priority 2008, published 2011):
Like-named read-outs stand apart in the source and are kept apart here. Blank lines part the entries; values can stand above or below the compound they belong to.

How the values were obtained:
[1] = logP(neutral) by reverse phase chromatography, potassium dihydrogen phosphate / acetonitrile; type: physicochemical
Myzus persicae = assay: Test to Myzus persicae (Brassica pekinensis leaf disc spray); type: in vivo; settings: foliar, read-out: pesticide effect, insect mortality
Procedure: Solvent: acetone 78.0 parts by weight and dimethylformamide 1.5 parts by weight Emulsifier: alkyl aryl polyglycol ether 0.5 parts by weight
(§1) In order to prepare preparations of suitable active compounds, 1 part by weight of each of the active compounds was blended with the above amount of the solvent containing the above amount of the emulsifier, and the resulting mixture was diluted to a prescribed concentration with water.
On a leaf disc of Brassica pekinensis, Myzus persicae including all growth stage was inoculated. The solution diluted with water and having a prescribed concentration of the active compound was sprayed by a spray gun. Insect mortality was calculated after prescribed days elapsed. 100% insect mortality means that all the individuals died, and 0% insect mortality means that all the individuals were alive.

[2] = test system: Myzus persicae resistant to organophosphorus pesticide and carbamate agent; assay: Test to Myzus persicae resistant to organophosphorus pesticide and carbamate agent (egg plant seedlings); type: in vivo; settings: 168 h, effective ingredient concentration 100 ppm, seven days after spraying, read-out: pesticide effect, insect mortality
Procedure: Test to Myzus persicae resistant to organophosphorus pesticide and carbamate agent
(§2) Solvent: dimethylformamide 3 parts by weight Emulsifier: polyoxyethylene alkyl phenyl ether 1 part by weight
as §1
On egg plant seedlings planted in a plastic pot of a diameter of 6 cm, 30 bred Myzus persicae resistant to organophosphorus pesticide and carbamate agent per one seedling were inoculated. After 1 day elapsed since the inoculation, a sufficient amount of the solution diluted with water and having a prescribed concentration of the active compound was sprayed. After the spraying, the pot was allowed to stand in a greenhouse of 28° C. After seven days elapsed since the spraying, insect mortality was calculated. The test was carried out twice.

[3] = test system: Spodoptera litura third instar larvae; assay: Test to larva of Spodoptera litura (sweet potato leaf dip); type: in vivo; settings: foliar, 168 h, read-out: insect mortality
Procedure: Test to Larva of Spodoptera litura
as §2, §1
Leaves of sweet potato were immersed in the tested liquid medication of a prescribed concentration diluted with water. After air drying of the liquid medication, the leaves were put into a petri dish of a diameter of 9 cm, and 10 Spodoptera litura third instar larvae were released in the petri dish, and the petri dish was placed in a constant temperature room of 25° C. Two days later and four days later, leaves of sweet potato were added. Seven days later, the number of dead insects was examined, and insect mortality was calculated.
In the present test, results of 2 petri dishes for each compound were averaged.

[4] = logP(acid) by reverse phase (C18) chromatography at pH 2.3; type: physicochemical; settings: pH 2.3; reverse phase (C18) chromatography, pH2.3, 0.1% phosphoric acid / acetonitrile gradient 10-95%; read-out: logP (acid)
[5] = potassium dihydrogen phosphate / acetonitrile
[6] = 0.0025M potassium dihydrogen phosphate aqueous solution / acetonitrile, linear gradient 10-95% acetonitrile
[7] = Spodoptera litura third instar larvae, active ingredient concentration 20 ppm, seven days later, 25° C.

Structure (SMILES): CCN(CC)C(=O)c1c(Cl)cccc1C(=O)Nc1ccc(Cn2nc(C(F)(F)F)cc2C(F)(F)F)cc1C
melting point: 105 to 107 °C

Structure (SMILES): Cc1cc(Cn2nc(C(F)(F)F)cc2C(F)(F)F)ccc1NC(=O)c1ccccc1C(=O)NC(C)C
melting point: 170 to 172 °C

Structure (SMILES): Cc1cc(Cn2nc(C(F)(F)F)cc2C(F)(F)F)ccc1NC(=O)c1cccc(Cl)c1C(=O)NC(C)(C)C(=O)O
melting point: 179 to 184 °C

Structure (SMILES): CCC(C)NC(=O)c1c(Cl)cccc1C(=O)Nc1ccc(Cn2nc(C(F)(F)F)cc2C(F)(F)F)cc1C (centres unmarked)
melting point: 187 to 188 °C

Structure (SMILES): CCC(C)NC(=O)c1cccc(Cl)c1C(=O)Nc1ccc(Cn2nc(C(F)(F)F)cc2C(F)(F)F)cc1C (centres unmarked)
melting point: 211 to 212 °C

Structure (SMILES): Cc1cc(Cn2nc(C(F)(F)C(F)(F)F)nc2C(F)(F)F)ccc1NC(=O)c1cccc(Cl)c1C(=O)NC(C)(C)CO
melting point: 105 to 110 °C

Structure (SMILES): Cc1cc(Cn2nc(C(F)(F)C(F)(F)F)nc2C(F)(F)F)ccc1NC(=O)c1cccc(Cl)c1C(=O)NC(C)(C)C=NO
melting point: 203 to 206 °C

Structure (SMILES): CSC[C@H](C)NC(=O)c1c(Cl)cccc1C(=O)Nc1ccc(Cn2c(C)nnc2C(F)(F)F)cc1C
melting point: 168 to 170 °C

Structure (SMILES): Cc1cc(Cn2nc(C(F)(F)C(F)(F)F)nc2C(F)(F)F)ccc1NC(=O)c1cccc(-c2cc(C(F)(F)F)cc(C(F)(F)F)c2)c1C(=O)N[C@@H](C)CS(C)(=O)=O
melting point: 201 °C

Structure (SMILES): CC(C)NC(=O)c1ccccc1C(=O)Nc1ccc(Cn2nc(C(F)(F)F)cc2C(F)(F)F)cc1
melting point: 176 to 178 °C

Structure (SMILES): Cc1nc(Cn2cc(C(F)(F)C(F)(F)F)c(C(F)(F)C(F)(F)F)n2)ccc1NC(=O)c1cccc(I)c1C(=O)NC(C)C[S+](C)[O-] (mixture of isomers) [13-159]
logP (neutral) [1, 5]: 3.08

Structure (SMILES): CSC[C@H](C)NC(=O)c1c(C(=O)Nc2ccc(Cn3nc(C(F)(F)F)cc3C(F)(F)F)nc2C)ccc(F)c1Br [9-10]
logP (neutral) [1, 6]: logP (neutral) 3.74

Structure (SMILES): Cc1cc(Cn2nc(C(F)(F)C(F)(F)F)nc2C(F)(F)F)ccc1NC(=O)c1ccc(C(F)(F)F)c(Cl)c1C(=O)N[C@@H](C)C[S+](C)[O-] (some centres unmarked) [9-24]
logP (neutral) [1, 6]: logP (neutral) 3.13

Structure (SMILES): CSC[C@H](C)NC(=O)c1c(OC(F)(F)F)cccc1C(=O)Nc1ccc(Cn2nc(C(F)(F)F)cc2C(F)(F)F)cc1C [13-13, N^1-(4-{[3,5-bis(trifluoromethyl)-1H-pyrazol-1-yl]methyl}-2-methylphenyl)-N^2-[(1S)-1-methyl-2-(methylthio)ethyl]-3-(trifluoromethoxy)-1,2-benzenedicarboxamide]
mortality at 100 g/ha (Myzus persicae): ≥ 70% | mortality at 100 ppm [2]: 100% | mortality at 20 ppm ([3]; Spodoptera litura): 100%

Structure (SMILES): COC(=O)CNC(=O)C(C)(C)NC(=O)c1c(Cl)cccc1C(=O)Nc1ccc(Cn2nc(C(F)(F)F)cc2C(F)(F)F)cc1C [13-121, methyl N-{2-[(4-{[3,5-bis(trifluoromethyl)-1H-pyrazol-1-yl]methyl}-2-methylphenyl)carbamoyl]-6-chlorobenzoyl)-2-methylalanyl glycinate]
mortality at 20 ppm [3, 7]: 100%

Structure (SMILES): CSC[C@H](C)NC(=O)c1c(Br)cccc1C(=O)Nc1ccc(Cn2nc(C(F)(F)C(F)(F)C(F)(F)F)cc2C(F)(F)F)nc1C [13-128]
logP (neutral) [1, 5]: 4.42

Structure (SMILES): Cc1cc(Cn2cc(C(F)(F)C(F)(F)F)c(C(F)(F)C(F)(F)F)n2)ccc1NC(=O)c1cccc(Br)c1C(=O)N[C@@H](C)CS(C)(=O)=O [13-140, N^1-(4-{[3,4-bis(pentafluoroethyl)-1H-pyrazol-1-yl]methyl}-2-methylphenyl)-3-bromo-N^2-[(1S)-1-methyl-2-(methylsulfonyl)ethyl]-1,2-benzenedicarboxamide]
mortality at 20 ppm [3, 7]: 100%

Structure (SMILES): CON=C(c1cn(Cc2ccc(NC(=O)c3cccc(I)c3C(=O)N[C@@H](C)CSC)c(C)c2)nc1C(F)(F)F)C(F)(F)F [13-147, 3-iodo-N^2-[(1S)-1-methyl-2-(methylthio)ethyl]-N^1-[2-methyl-4-({4-[2,2,2-trifluoro-N-methoxyethanimidoyl]-3-(trifluoromethyl)-1H-pyrazol-1-yl}methyl)phenyl]-1,2-benzenedicarboxamide]
mortality at 20 ppm [3, 7]: 100%

Structure (SMILES): CSC[C@H](C)NC(=O)c1c(C#N)cccc1C(=O)Nc1ccc(Cn2nc(C(F)(F)F)cc2C(F)(F)F)cc1C [13-172, N^1-(4-{[3,5-bis(trifluoromethyl)-1H-pyrazol-1-yl]methyl}-2-methylphenyl)-3-cyano-N^2-[(1S)-1-methyl-2-(methylthio)ethyl]-1,2-benzenedicarboxamide]
mortality at 100 g/ha (Myzus persicae): ≥ 70% | mortality at 100 ppm [2]: 100% | mortality at 20 ppm ([3]; Spodoptera litura): 100%

Structure (SMILES): CSC[C@H](C)NC(=O)c1c(C(=O)Nc2ccc(Cn3nc(C(F)(F)F)cc3C(F)(F)F)nc2C)cccc1S(=O)(=O)N(C)C [13-287]
logP (neutral) [1, 5]: 3.42

Structure (SMILES): CCSC[C@H](C)NC(=O)c1c(SC)cccc1C(=O)Nc1ccc(Cn2nc(C(F)(F)F)cc2C(F)(F)F)cc1C [13-291, N^1-(4-{[3,5-bis(trifluoromethyl)-1H-pyrazol-1-yl]methyl}-2-methylphenyl)-N^2-[(1S)-1-methyl-2-(ethylthio)ethyl]-3-methylthio-1,2-benzenedicarboxamide]
mortality at 100 g/ha (Myzus persicae; spraying amount 100 g/ha): ≥ 70% | mortality at 20 ppm [3, 7]: 100%

Structure (SMILES): Cc1cc(Cn2nc(C(F)(F)C(F)(F)F)nc2C(F)(F)F)ccc1NC(=O)c1cccc(Cl)c1C(=O)NC(C)(C)C=O [14-130, 3-chloro-N^2-(1,1-dimethyl-2-oxoethyl)-N^1-(2-methyl-4-{[3-(pentafluoroethyl)-5-(trifluoromethyl)-1H-1,2,4-triazol-1-yl]methyl}phenyl)-1,2-benzenedicarboxamide]
mortality at 20 ppm [3, 7]: 100%

Structure (SMILES): CSC[C@H](C)NC(=O)c1c(Cl)cccc1C(=O)Nc1ccc(CN2N=C(C(F)(F)C(F)(F)F)NC2C(F)(F)F)cc1C (stereo partly drawn) [16-4, 3-chloro-N^1-(2-methyl-4-{[3-(pentafluoroethyl)-5-(trifluoromethyl)-4,5-dihydro-1H-1,2,4-triazol-1-yl]methyl}phenyl)-N^2-[(1S)-1-methyl-2-(methylthio)ethyl]-1,2-benzenedicarboxamide]
mortality at 100 ppm [2]: 100% | mortality at 20 ppm ([3]; Spodoptera litura): 100%

Structure (SMILES): CSC[C@H](C)NC(=O)c1c(Cl)cccc1C(=O)Nc1ccc(CN2N=C(C(F)(F)C(F)(F)F)N(C(C)=O)C2C(F)(F)F)cc1C (stereo partly drawn) [16-6, N^1-(4-{[4-acetyl-3-(pentafluoroethyl)-5-(trifluoromethyl)-4,5-dihydro-1H-1,2,4-triazol-1-yl]methyl}-2-methylphenyl)-3-chloro-N^2-[(2S)-1-(methylsulfanyl)propan-2-yl]-1,2-benzenedicarboxamide]
mortality at 20 ppm [3, 7]: 100%

Structure (SMILES): Cc1nc(Cn2nnc(C(F)(F)C(F)(F)C(F)(F)F)n2)ccc1[N+](=O)[O-] [SYNTHESIS EXAMPLE 86-1]
chromatographic logP [4]: 3.78

Structure (SMILES): Cc1nc(Cn2nnc(C(F)(F)C(F)(F)C(F)(F)F)n2)ccc1N [SYNTHESIS EXAMPLE 86-2]
chromatographic logP [4]: 2.3

Now from value to compound:

logP (neutral) [1, 5]: 3.10
Structure (SMILES): Cc1nc(Cn2nc(C(F)(F)F)cc2C(F)(F)F)ccc1NC(=O)c1cc(Cl)cc(Cl)c1C(=O)N[C@@H](C)CS(C)(=O)=O [10-3]

logP (neutral) [1, 5]: logP (neutral) 2.90
Structure (SMILES): Cc1cc(Cn2nc(C(F)(F)C(F)(F)F)nc2C(F)(F)F)ccc1NC(=O)c1c(Cl)ccc(Cl)c1C(=O)N[C@@H](C)C[S+](C)[O-] (some centres unmarked) [11-28]

logP (neutral) [1, 5]: 2.16
Structure (SMILES): CSC[C@H](C)NC(=O)c1c(Cl)cccc1C(=O)Nc1ccc(Cn2nc(C(F)(F)F)n(C)c2=O)nc1C [14-320]
